Assay results published in ChEMBL document CHEMBL3045076, “Influence on Insecticidal Activity of the 3-(3,4-Methylenedioxyphenyl) Group in the 1,4-Benzodioxanyl Moiety of Haedoxan” (1992).
Activity calls are given as the source filed them. No cut-off for these calls is given here.

How the values were obtained:
Musca domestica [1] = experiment: Insecticidal activity against Musca domestica (house fly) assessed as mortality measured per fly; type: functional
Musca domestica [2] = experiment: Insecticidal activity against Musca domestica (house fly) assessed as increase in mortality; type: functional, organism-based

Compound	LD50 (Musca domestica [1]) [µg]	Activity (Musca domestica [2])
COC[C@H]1Oc2cc([C@H]3OC[C@]4(O)[C@@H](Oc5c(OC)cc6c(c5OC)OCO6)OC[C@H]34)c(OC)cc2O[C@@H]1c1ccc2c(c1)OCO2 [(+)-HAEDOXAN A]	0.00025	
CCCC[C@H]1Oc2cc(OC)c([C@H]3OC[C@]4(O)[C@@H](Oc5c(OC)cccc5OC)OC[C@H]34)cc2O[C@@H]1COC (mixture of isomers)	1	
COC[C@H]1Oc2cc([C@H]3OC[C@]4(O)[C@@H](Oc5c(OC)cccc5OC)OC[C@H]34)c(OC)cc2O[C@H]1C (mixture of isomers)		inactive
COC[C@H]1Oc2cc([C@H]3OC[C@]4(O)[C@@H](Oc5c(OC)cccc5OC)OC[C@H]34)c(OC)cc2O[C@@H]1C (mixture of isomers)	1	
